Patent US20090221624A1, “4-AMINOQUINOLINE COMPOUNDS FOR TREATING VIRUS-RELATED CONDITIONS” (priority 2005, published 2009)
Read-outs that look alike come from different tables or passages of the source.

What was measured:
DNG (D2-hRuPac cells) = assay: DNG antiviral activity, D2-hRuPac cells, Renilla luciferase; format: cell-based, Dengue fever virus; conditions: Dengue virus, secondary screening
EBOV minigenome = assay: microbe, parasite or virus in culture; format: cell-based, Ebola virus; conditions: Zaire ebolavirus; for inhibition at 25 µM: 24 h, read-out: EBOV Inh; for EC50: read-out: EBOV EC50
WNV (WN-hRuPac cells) = assay: WNV antiviral activity, WN-hRuPac cells, Renilla luciferase; format: cell-based, West Nile virus; conditions: for EC50 / inhibition at 25 µM: West Nile virus; for EC50: read-out: WNV EC50; for inhibition at 25 µM: primary screening, 25 μM final concentration, 24 hours, percent inhibition of viral replication, read-out: WNV Inh; for WNV TI: therapeutic index CC50/EC50, WNV
YFV (YF-hRuPac cells) = assay: microbe, parasite or virus in culture; format: cell-based, yellow fever virus; conditions: for inhibition at 25 µM / EC50: Yellow fever virus; for inhibition at 25 µM: 24 h, read-out: YFV Inh; for EC50: read-out: YFV EC50
RSV minigenome = assay: RSV minigenome-dependent β-galactosidase expression assay (RSV β-Gal); format: cell-based, respiratory syncytial virus; conditions: for EC50 / inhibition at 25 µM: human respiratory syncytial virus; for EC50: RSV; for inhibition at 25 µM: primary screening, 25 μM final concentration, 24 hours, percent inhibition of viral replication, read-out: RSV Inh; for RSV TI: therapeutic index CC50/EC50, RSV
SINV (SR19-F-luc cells) = assay: SINV antiviral activity, SR19-F-luc cells, Firefly luciferase; format: cell-based; conditions: Sindbis virus; for inhibition at 25 µM: primary screening, 25 μM final concentration, 24 hours, percent inhibition of viral replication, read-out: SINV Inh; for EC50: secondary screening, SR19-F-luc cells
[1] = tested on: HCV replicon (Clone A cells, Huh7, subgenomic hepatits C virus RNA); assay: HCV Neo screening assay (HCV replicon, NPTII ELISA); format: cell-based, hepatitis C virus; conditions: for EC50 / inhibition at 25 µM: Hepatitis C virus, Huh-7; for EC50: Secondary Data, HCV; for inhibition at 25 µM: primary screening, 25 μM final concentration, 24 hours, percent inhibition of viral replication, read-out: HCV Inh; for HCV TI: therapeutic index CC50/EC50, HCV
[2] = Secondary Data, read-out: RSV EC50

Structure (SMILES) | EC50 (DNG (D2-hRuPac cells)) [µM] | inhibition at 25 µM (EBOV minigenome) [%] | EC50 (EBOV minigenome) [µM] | EC50 (WNV (WN-hRuPac cells); Secondary Data, WNV) [µM] | inhibition at 25 µM (WNV (WN-hRuPac cells)) [%] | inhibition at 25 µM (YFV (YF-hRuPac cells)) [%] | EC50 (YFV (YF-hRuPac cells)) [µM] | CC50 (in vitro; DNG CC50) [µM] | CC50 (in vitro; EBOV CC50) [µM] | CC50 (in vitro; HCV CC50) [µM] | CC50 (in vitro; RSV CC50) [µM] | CC50 (in vitro; SINV CC50) [µM] | CC50 (in vitro; WNV CC50) [µM] | CC50 (in vitro; YFV CC50) [µM] | EC50 (RSV minigenome; [2]) [µM] | inhibition at 25 µM (RSV minigenome) [%] | RSV TI (RSV minigenome) | inhibition at 25 µM (SINV (SR19-F-luc cells)) [%] | EC50 (SINV (SR19-F-luc cells)) [µM] | inhibition at 25 µM [1] [%] | other results
COc1ccc(Nc2cc(C)nc3c2ccc2ccccc23)cc1 [Compound 7] | 17 | 85.3 | 10.8 | ≥ 75 | 34.3 | 64.1 | ≥ 75 | ≥ 75 | ≥ 75 | 14 | ≥ 75 | ≥ 75 | ≥ 75 | ≥ 75 | 10 | 76.9 | 7.5 | 7.58 | ≥ 75 | 104 | EC50 [1]: 5.87 µM; HCV TI [1]: 2.39
CCOC(=O)c1ccc2nc(C)cc(Nc3ccc(C)cc3C)c2c1 [Compound 51] | 61 | 33.7 | 52.6 | 16 | 49 | 41.8 | 15.5 | 56.1 | 56.1 | 21.4 | 56.1 | 56.1 | 56.1 | 56.1 | 3.72 | 75.5 | 15.07 | 51.9 | 13.7 | 55.5 | WNV TI (WNV (WN-hRuPac cells)): 3.5; YFV TI (YFV (YF-hRuPac cells)): 3.62; EC50 [1]: 11.3 µM; HCV TI [1]: 1.89
Cc1cc(C)c2nc(C)cc(Nc3ccc(Cl)c(Cl)c3)c2c1 [Compound 53] | 28.7 | 75.6 | 75 | 20.9 | 91.9 | 79.9 | 6.47 | 49.1 | 49.1 | 8.3 | 49.1 | 49.1 | 49.1 | 49.1 | 3.78 | 100 | 13 | 88.1 | 6.69 | 150 | WNV TI (WNV (WN-hRuPac cells)): 2.35; YFV TI (YFV (YF-hRuPac cells)): 7.6; EC50 [1]: 4.78 µM; HCV TI [1]: 1.74
Cc1cc(C)c2nc(C)cc(Nc3ccc(OCc4ccccc4)cc3)c2c1 [Compound 44] | 3.39 | 99.6 | 75 | 4.29 | 99.9 | 100 | 2.26 | 27.4 | 27.4 | 5.05 | 27.4 | 27.4 | 27.4 | 27.4 | 3.88 | 98.9 | 7.06 | 95.8 | 3.57 | 94.7 | WNV TI (WNV (WN-hRuPac cells)): 6.39; YFV TI (YFV (YF-hRuPac cells)): 12.12; EC50 [1]: 2.93 µM; HCV TI [1]: 1.72
Cc1ccc2nc(C)cc(Nc3ccccc3)c2c1 [Compound 3] | 34.2 | -44.2 | 65.2 |  | 38.7 | 41.7 | 18.4 | 52.3 | 52.3 | 32.3 | 52.3 | 52.3 | 52.3 | 52.3 |  | 86.3 | 4.63 | 76.1 | 1.29 | 32.1 | EC50 (WNV (WN-hRuPac cells)): 29.9 µM; WNV TI (WNV (WN-hRuPac cells)): 1.75; YFV TI (YFV (YF-hRuPac cells)): 2.84; EC50 (RSV minigenome; read-out: RSV EC50, Secondary Data): 11.3 µM
